The record followed here is patent US20250340537A1, “PHARMACEUTICALLY ACTIVE COMPOUNDS, COMPOSITIONS, AND METHODS FOR MODULATING PENDRIN” (ARBORMED Co., Ltd., priority 2022, published 2025).

The experiment has as its target T1, H723R-pendrin (Homo sapiens, UniProt O43511, H723R).
T1 construct: expressed in transfected cells; host or cells: PANC-1
T1 sequence (O43511 1-780 H723R): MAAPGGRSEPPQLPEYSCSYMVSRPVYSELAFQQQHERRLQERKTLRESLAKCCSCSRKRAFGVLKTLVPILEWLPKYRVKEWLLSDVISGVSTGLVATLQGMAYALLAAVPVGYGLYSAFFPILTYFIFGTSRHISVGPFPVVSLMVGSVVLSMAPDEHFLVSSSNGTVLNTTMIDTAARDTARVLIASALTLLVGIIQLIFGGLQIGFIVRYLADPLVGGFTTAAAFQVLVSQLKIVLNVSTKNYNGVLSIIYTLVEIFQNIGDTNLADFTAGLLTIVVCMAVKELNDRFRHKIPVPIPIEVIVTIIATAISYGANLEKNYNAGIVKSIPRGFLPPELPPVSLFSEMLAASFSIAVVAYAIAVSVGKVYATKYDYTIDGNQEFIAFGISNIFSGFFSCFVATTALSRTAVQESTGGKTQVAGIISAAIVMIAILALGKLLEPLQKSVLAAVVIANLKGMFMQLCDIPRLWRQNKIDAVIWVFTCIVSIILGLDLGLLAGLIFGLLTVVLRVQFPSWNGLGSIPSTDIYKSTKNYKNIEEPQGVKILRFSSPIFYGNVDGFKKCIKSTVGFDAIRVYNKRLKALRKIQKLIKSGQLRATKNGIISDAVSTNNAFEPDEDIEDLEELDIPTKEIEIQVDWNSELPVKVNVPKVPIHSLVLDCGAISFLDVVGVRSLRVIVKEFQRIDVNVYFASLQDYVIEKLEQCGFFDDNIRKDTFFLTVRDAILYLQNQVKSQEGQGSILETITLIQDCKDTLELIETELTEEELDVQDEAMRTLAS
In words: YFP fluorescence quenching assay (Cl−/I− exchange activity of pendrin). The format is cell-based. Particulars: PANC-1 cells stably expressing human H723R-pendrin and YFP-F46L/H148Q/I152L; compound incubation 20-24 hours; iodide influx. The source says: Halide sensor YFP F46L/H148Q/I152L is quenched by halide ion like Iodide. When such YFP is expressed in a cell, it expresses in the cytoplasm.
To measure H723R-PDS activity, PANC-1 cells were stably transfected with halide sensors YFP-F46L/H148Q/I152L and H723R-PDS which has problems with membrane trafficking due to misfolding.
If the cell-treated drug is a corrector for H723R-PDS, H723R-PDS will translocate normally to the plasma membrane.
At this time, when treated with a high-concentration iodide solution outside the cell, iodide enters the cell due to the Cl−/I− exchange activity of pendrin, and the fluorescence of the halide sensor YFP decreases.
PANC-1 cells were cultured in Dulbecco's Modified Eagle's Medium with 10% fetal bovine serum, 2 mM glutamine, 100 units/ml penicillin and 100 µg/ml streptomycin. For high-throughput screening, PANC-1 cells were stably transfected with human H723R-pendrin and halide sensor YFP-F46L/H148Q/I152L.
PANC-1 cells expressing human H723R-pendrin and YFP-F46L/H148Q/I152L were plated in 96-well microplates at a density of 2×10^4 cells per well and grown for 20-24 hours at 37° C. (90% humidity 5% CO2). Then these cells were treated with 50 μl growth medium containing test compounds and incubated for 20-24 hours. For YFP quenching assay, each well of the 96-well plate was washed 2 times with 200 μl of PBS, and it was filled with 50 μl of HEPES-buffered solution (140 mM NaCl, 5 mM KCl, 1 mM MgCl2, 1 mM CaCl2, 10 mM D-glucose, 10 mM HEPES; pH 7.4 with NaOH). After 10 minutes of incubation at 37° C., the 96-well plate was moved on the FLUOstar Omega Microplate Reader (BMG Labtech, Ortenberg, Germany) for a fluorescence assay. Each well was assayed individually for H723R-pendrin mediated I^− influx by recording fluorescence (495±15 nm excitation, 520±20 nm emission) every 400 ms for 1 second (baseline). Then, 50 μL of NaI-substituted HEPES-buffered solution (NaI replacing NaCl) was added using a liquid injector at 1 second and YFP fluorescence was recorded every 400 ms for 10 seconds. The initial iodide influx rate was determined from the initial slope of fluorescence by nonlinear regression, after the infusion of iodide.
It is indicated as EC50 with the following key: A=EC50 less than 5 uM; B=EC50 greater than 5 uM, but less than 10 uM; C=EC50 greater than 10 uM.

Structures are written as SMILES.

The term EC50 denotes the concentration at which the effect is half-maximal. Read a low EC50 as a more potent agent. `COCCOc1cc(-c2cncc(C3=C(N)N(CC4CCCC4)CC3=O)n2)ccc1O` [Compound 99]: the EC50 is < 5 µM. As to `COc1ccc(-c2cncc(C3=C(N)N(c4ccccc4Cl)CC3=O)n2)cc1OC` [Compound 6], the concentration giving a half-maximal response (EC50) was 5 to 10 µM. Regarding `NC1=C(c2ccnc(-c3ccc(O)c(O)c3)n2)C(=O)CN1c1ccccc1Cl` [Compound 114], the EC50 was < 5 µM.

As for `CN1CCC(CN2CC(=O)C(c3cncc(-c4ccc(O)c(O)c4)n3)=C2N)C1` (centres unmarked) [Compound 53], the EC50 was > 10 µM. As for `NC1=C(c2cccc(-c3ccc(O)c(O)c3)n2)C(=O)CN1c1ccccc1Cl` [Compound 76], the EC50 is > 10 µM. Turning to `COc1ccc(-c2cc(C3=C(N)N(CC4CCCC4)CC3=O)ccn2)cc1OC` [Compound 108], the EC50 was > 10 µM. `COc1ccc(-c2cncc(C3=C(N)N(C4CCC(F)(F)C4)CC3=O)n2)cc1OC` (centres unmarked) [Compound 61]: the EC50 was > 10 µM. On to `COCOc1ccc(-c2cncc(C3=C(N)N(C4CCCC4)CC3=O)n2)cc1OC1COC1` [Compound 115], for which the EC50 is > 10 µM. For the compound `COc1ccc(-c2cnc(C3=C(N)N(c4ccccc4F)CC3=O)nc2)cc1OC` [Compound 2], the EC50 is > 10 µM. In the case of `NC1=C(c2cncc(-c3ccc(O)c(O)c3)n2)C(=O)CN1CCC(F)(F)F` [Compound 19], the EC50 was > 10 µM. In the case of `COc1ccc(-c2cncc(C3=C(N)N(CCC4CCCC4)CC3=O)n2)cc1OC` [Compound 44], the EC50 was < 5 µM.

With `COc1ccc(-c2ccnc(C3=C(N)N(CC4CCOC4)CC3=O)n2)cc1OC` (centres unmarked) [Compound 84], the 50% effective concentration (EC50) was > 10 µM. Regarding `COc1ccc(-c2cncc(C3=C(N)N(CCC(F)(F)F)CC3=O)n2)cc1OC` [Compound 17], the EC50 is > 10 µM. Take `NC1=C(c2ccnc(-c3ccc(O)c(O)c3)c2)C(=O)CN1c1ccccc1Cl` [Compound 102]: the EC50 was > 10 µM. On to `NC1=C(c2cncc(-c3ccc(O)c(OC4CCC4)c3)n2)C(=O)CN1CC1CCCC1` [Compound 67], for which the EC50 is > 10 µM.

In the case of `COc1ccc(-c2ccnc(C3=C(N)N(CC4CCCC4)CC3=O)n2)cc1OC` [Compound 56], the EC50 is > 10 µM. The compound `COc1ccc(-c2cncc(C3=C(N)N(c4ccccc4F)CC3=O)n2)cc1OC` [Compound 4] yielded an EC50 of 5 to 10 µM.

Regarding `COc1cc(-c2cncc(C3=C(N)N(CC4CCNC4)CC3=O)c2)ccc1O` (centres unmarked) [Compound 90], the EC50 is > 10 µM. Regarding `NC1=C(c2cncc(-c3ccc(O)c(O)c3)n2)C(=O)CN1c1cccnc1Cl` [Compound 119], the EC50 is > 10 µM. The figure for `NC1=C(c2cncc(-c3ccc4nc[nH]c4c3)n2)C(=O)CN1c1ccccc1Cl` [Compound 34] is > 10 µM; for `COc1ccc(-c2cccc(C3=C(N)N(CC4CCCC4)CC3=O)n2)cc1OC` [Compound 80] it is > 10 µM; for `COc1ccc(-c2cc(C3=C(N)N(c4ccccc4F)CC3=O)ccn2)cc1OC` [Compound 100] it is > 10 µM. For the compound `COc1ccc(-c2ccnc(C3=C(N)N(CCC(F)(F)F)CC3=O)n2)cc1OC` [Compound 96], the EC50 was > 10 µM. Turning to `CNc1ccc(-c2cncc(C3=C(N)N(CC(C)C)CC3=O)n2)cc1NC` [Compound 26], the EC50 is > 10 µM. Turning to `NC1=C(c2cc(-c3ccc(O)c(O)c3)ncn2)C(=O)CN1c1ccccc1Cl` [Compound 72], the EC50 is > 10 µM. Next, `CC(C)CN1CC(=O)C(c2cncc(-c3ccc4c(c3)n(C)c(=O)n4C)n2)=C1N` [Compound 27]: > 10 µM. The figure for `NC1=C(c2cncc(-c3ccc4nccnc4c3)n2)C(=O)CN1c1ccccc1Cl` [Compound 12] is > 10 µM; for `CNc1ccc(-c2cncc(C3=C(N)N(c4ccccc4Cl)CC3=O)n2)cc1NC` [Compound 23] it is > 10 µM; for `COc1ccc(-c2ccnc(C3=C(N)N(CC4CCNC4)CC3=O)n2)cc1OC` (centres unmarked) [Compound 82] it is > 10 µM. For the compound `COc1ccc(-c2cccc(C3=C(N)N(c4ccccc4Cl)CC3=O)n2)cc1OC` [Compound 75], the EC50 is > 10 µM. The figure for `COc1ccc(-c2cncc(C3=C(N)N(CC4CCNC4)CC3=O)n2)cc1OC` (centres unmarked) [Compound 39] is > 10 µM; for `NC1=C(c2ccnc(-c3ccc(O)c(O)c3)n2)C(=O)CN1c1ccccc1F` [Compound 57] it is < 5 µM. For the compound `NC1=C(c2cncc(-c3ccc(O)c(OC4CC(N)C4)c3)n2)C(=O)CN1CC1CCCC1` (centres unmarked) [Compound 113], the EC50 was > 10 µM. The figure for `NC1=C(c2cncc(-c3ccc(O)c(OC4COC4)c3)n2)C(=O)CN1C1CCCC1` [Compound 117] is 5 to 10 µM; for `NC1=C(c2cncc(-c3ccc(O)c(OC(F)(F)F)c3)n2)C(=O)CN1c1ccccc1Cl` [Compound 32] it is 5 to 10 µM; for `COc1ccc(-c2nccc(C3=C(N)N(c4ccccc4F)CC3=O)n2)cc1OC` [Compound 5] it is > 10 µM. Regarding `COc1ccc(-c2cncc(C3=C(N)N(CC4CCCCC4)CC3=O)n2)cc1OC` [Compound 48], the EC50 was > 10 µM. The figure for `COc1ccc(-c2cccc(C3=C(N)N(c4ccccc4F)CC3=O)n2)cc1OC` [Compound 3] is > 10 µM; for `COc1ccc(-c2cncc(C3=C(N)N(CC4CCNC4)CC3=O)c2)cc1OC` (centres unmarked) [Compound 55] it is > 10 µM. `NC1=C(c2cncc(-c3ccc(O)c(O)c3)n2)C(=O)CN1CC1CCNC1` (centres unmarked) [Compound 40]: the EC50 is > 10 µM. Consider `NC1=C(c2nccc(-c3ccc(O)c(O)c3)n2)C(=O)CN1CC1CCNC1` (centres unmarked) [Compound 83], for which the EC50 was > 10 µM. For `COc1ccc(-c2cncc(C3=C(N)N(c4ccccc4O)CC3=O)n2)cc1OC` [Compound 42], the 50% effective concentration (EC50) was > 10 µM. Turning to `NC1=C(c2ccnc(-c3ccc(O)c(O)c3)c2)C(=O)CN1CC1CCCC1` [Compound 109], the EC50 is > 10 µM. On to `COc1ccc(-c2ccnc(C3=C(N)N(c4ccccc4F)CC3=O)n2)cc1OC` [Compound 1], for which the EC50 was > 10 µM.

With `NC1=C(c2cncc(-c3ccc(O)cc3O)n2)C(=O)CN1c1ccccc1Cl` [Compound 30], the EC50 was > 10 µM. With `COc1ccc(-c2cncc(C3=C(N)N(CCC(F)(F)F)CC3=O)c2)cc1OC` [Compound 88], the EC50 is > 10 µM. The figure for `NC1=C(c2cccc(-c3ccc(O)c(O)c3)n2)C(=O)CN1CC1CCNC1` (centres unmarked) [Compound 86] is > 10 µM; for `COc1ccc(-c2cc(C3=C(N)N(c4ccccc4Cl)CC3=O)ncn2)cc1OC` [Compound 68] it is > 10 µM. Take `COc1ccc(-c2cncc(C3=C(N)N(CC4CCN(C)C4)CC3=O)n2)cc1OC` (centres unmarked) [Compound 52]: the half-maximal effective concentration (EC50) was > 10 µM. For the compound `NC1=C(c2cncc(-c3cc(O)cc(O)c3)n2)C(=O)CN1c1ccccc1Cl` [Compound 24], the EC50 was > 10 µM. With `NC1=C(c2cncc(-c3ccc4ocnc4c3)n2)C(=O)CN1c1ccccc1Cl` [Compound 11], the EC50 is > 10 µM.

Take `NC1=C(c2cncc(-c3ccc(O)c(O)c3)c2)C(=O)CN1CC1CCNC1` (centres unmarked) [Compound 60]: the EC50 is > 10 µM.

`COC(CN1CCN(c2cncc(C3=C(N)N(c4ccccc4Cl)CC3=O)n2)CC1)OC` [Compound 25]: the EC50 is > 10 µM.
